The nature of assay [1]: Inhibition of HCV H genotype 1a N-terminal hexa-histidine-tagged NS3 helicase expressed in Escherichia coli BL21(DE3) using DNA oligonucleotide duplex as substrate after 1 hr by unwinding assay. Set-up: species or system Hepatitis C virus (isolate H).
Assay [2] in a line: Binding affinity to HCV H genotype 1a N-terminal hexa-histidine-tagged NS3 helicase expressed in Escherichia coli BL21(DE3) assessed as resonance peak2 by STD NMR spectroscopic analysis. Also noted: species or system Hepatitis C virus (isolate H).
Assay [3] can be described thus: Binding affinity to HCV H genotype 1a N-terminal hexa-histidine-tagged NS3 helicase expressed in Escherichia coli BL21(DE3) assessed as resonance peak1 by STD NMR spectroscopic analysis. Also noted: species or system Hepatitis C virus (isolate H).
A short description of assay [4]: Binding affinity to HCV H genotype 1a N-terminal hexa-histidine-tagged NS3 helicase expressed in Escherichia coli BL21(DE3) at pH 6.5 by circular dichroism assay. Also noted: species or system Hepatitis C virus (isolate H). (Circular dichroism is widely used to follow secondary structure.)
A short description of assay [5]: Binding affinity to HCV H genotype 1a N-terminal hexa-histidine-tagged NS3 helicase expressed in Escherichia coli BL21(DE3) in ITC/NMR buffer at pH 7.5 by circular dichroism assay. Also noted: species or system Hepatitis C virus (isolate H).
Assay [6] is described as follows: Binding affinity to HCV H genotype 1a N-terminal hexa-histidine-tagged NS3 helicase expressed in Escherichia coli BL21(DE3) by isothermal titration calorimetry. Also noted: species or system Hepatitis C virus (isolate H).
A short description of assay [7]: Selectivity ratio for HCV H genotype 1a N-terminal hexa-histidine-tagged NS3 helicase over human RNA helicase A.

Molecules are shown by their SMILES.

A word on the IC50: it is the concentration that gives 50% inhibition. Broadly, the Kd is the equilibrium constant for the complex coming apart.

`O=C(O)Cc1cn(Cc2cccc(Cl)c2)c2cc(Br)ccc12` registered an IC50 in assay [1] of 94 µM. This counts as double-digit micromolar.

In assay [1], `O=C(O)Cc1cn(Cc2cccc(I)c2)c2ccccc12` registered an IC50 of 52 µM.

Regarding `C#Cc1cccc(Cn2cc(CC(=O)O)c3ccccc32)c1`, the IC50 in assay [1] worked out at 31 µM.

With `O=C(O)Cc1cn(Cc2cccc(Cl)c2)c2ccccc12`, it took 71 µM to reach half-maximal inhibition in assay [1] (IC50).

Take `O=C(O)Cc1cn(Cc2cccc(Cl)c2)c2cc(-c3ccccc3)ccc12`: the IC50 in assay [1] came to 140 µM.

For the molecule `Nc1cc(N)cc(-c2ccc3c(CC(=O)O)cn(Cc4cccc(Cl)c4)c3c2)c1`, in assay [1], the half-inhibitory concentration (IC50) turned out to be 35 µM.

Molecule `O=C(O)Cc1c[nH]c2ccccc12` [INDOLE-3-ACETIC ACID] came in with an IC50 in assay [1] of 500 µM.

In turn, `Cc1cccc(Cn2cc(CC(=O)O)c3ccccc32)c1` came in with an IC50 in assay [1] of 85 µM.

`O=C(O)Cc1cn(-c2ccc([N+](=O)[O-])cc2C(F)(F)F)c2ccc(Br)cc12` had a 50% inhibitory concentration (IC50) in assay [1] of 140 µM.

Regarding `COc1ccc([N+](=O)[O-])cc1Cn1cc(CC(=O)O)c2ccc(-c3cc(N)cc(N)c3)cc21`, the Kd in assay [2] was found to be 28 µM; in assay [3], 32 µM; in assay [4], 3.5 µM; in assay [5], 41 µM; in assay [6], 33 µM. For the same molecule, the Selectivity ratio in assay [7] is 36. In addition, in assay [1], the IC50 turned out to be 3 µM.

The molecule `O=C(O)Cc1cn(Cc2cccc([N+](=O)[O-])c2)c2ccccc12` showed a concentration for half-maximal inhibition (IC50) in assay [1] of 46 µM.

Regarding `Nc1cc(-c2ccc3c(CC(=O)O)cn(Cc4cccc(Cl)c4)c3c2)cc([N+](=O)[O-])c1`, in assay [1], the IC50 is 140 µM.

The molecule `O=C(O)Cc1cn(Cc2cccc(O)c2)c2ccccc12` had an IC50 in assay [1] of 150 µM. The IC50 values of the last two molecules are within 1.5-fold of each other.

`Nc1cccc(Cn2cc(CC(=O)O)c3ccccc32)c1` yielded an IC50 in assay [1] greater than 500 µM.

As for `COc1ccc([N+](=O)[O-])cc1Cn1cc(CC(=O)O)c2ccccc21`, the IC50 in assay [1] was determined as 14 µM.

In the case of `O=C(O)Cc1cn(Cc2cccc(Cl)c2)c2cc(Cl)ccc12`, the IC50 in assay [1] came to 94 µM.

`O=C(O)Cc1cn(Cc2ccccc2)c2ccccc12`: the IC50 in assay [1] is 240 µM.

The record behind these values is ChEMBL document CHEMBL3120058, “Integrated strategies for identifying leads that target the NS3 helicase of the hepatitis C virus” (J Med Chem, 2014).
